The values below come from ChEMBL document CHEMBL4043144, “Design, synthesis and evaluation of 2,2-dimethyl-1,3-dioxolane derivatives as human rhinovirus 3C protease inhibitors” (Bioorg Med Chem Lett, 2017).

Assay [1] relates to Human rhinovirus sp. Briefly: Inhibition of recombinant N-terminal His-tagged HRV 3C protease expressed in Escherichia coli at 10 uM preincubated for 15 mins followed by LEVLFQGPSK substrate addition after 45 mins by reverse-phase HPLC analysis relative to control.
Assay [2] is described as follows: Inhibition of recombinant N-terminal His-tagged HRV 3C protease expressed in Escherichia coli preincubated for 15 mins followed by LEVLFQGPSK substrate addition after 45 mins by reverse-phase HPLC analysis. Also noted: species or system Human rhinovirus sp.
Assay [3] deals with Human rhinovirus sp. Briefly: Inhibition of recombinant N-terminal His-tagged HRV 3C protease expressed in Escherichia coli at 100 uM preincubated for 15 mins followed by LEVLFQGPSK substrate addition after 45 mins by reverse-phase HPLC analysis relative to control.

For the molecule `CC1(C)O[C@@H](C(=O)Nc2nc3ccccc3s2)[C@H](C(=O)N2CCN(Cc3ccccc3)CC2)O1`, the values for the inhibition in the assay on Human rhinovirus sp. [1] and in the assay on Human rhinovirus sp. [3] were 18.8% and 85.5%, respectively. Besides, in assay [2], the IC50 was more than 10 µM.
For `Cc1cccc(CN2CCN(C(=O)[C@@H]3OC(C)(C)O[C@H]3C(=O)Nc3nc4ccccc4s3)CC2)c1`, in that order: 20.2%, 78.7% and more than 10 µM.
Take `COc1cccc(NCCNC(=O)[C@@H]2OC(C)(C)O[C@H]2C(=O)Nc2nc3ccccc3s2)c1`: the inhibition in the assay on Human rhinovirus sp. [1] stood at 62.2%; with Human rhinovirus sp. [3], 99.9%. In addition, the concentration for half-maximal inhibition (IC50) in assay [2] came to 8.28 µM.
For the molecule `CC1(C)O[C@H](C(=O)Nc2nc3ccccc3s2)[C@@H](C(=O)N2CCN(c3ccccc3C#N)CC2)O1`, the inhibition in the assay with Human rhinovirus sp. [1] came to 48.1%; in the assay with Human rhinovirus sp. [3], 84.2%. In addition, the IC50 in assay [2] is more than 10 µM.
The matching figures for `CC1(C)O[C@H](C(=O)Nc2nc3ccccc3s2)[C@@H](C(=O)N2CCN(Cc3ccccc3)CC2)O1`: 20.8%, 56.4% and more than 10 µM.
The matching figures for `CC1(C)O[C@@H](C(=O)Nc2nc3ccccc3s2)[C@H](C(=O)N2CCN(c3ccccc3C#N)CC2)O1`: 86%, 100% and 2.5 µM.
For `CC1(C)O[C@@H](C(=O)Nc2nc3ccccc3s2)[C@H](C(=O)N2CCN(c3ccccc3)CC2)O1`, in that order: 69%, 100% and 8.57 µM.
With `CC1(C)O[C@@H](C(=O)Nc2nc3ccccc3s2)[C@H](C(=O)N2CCN(c3ccccn3)CC2)O1`, the results for the inhibition in the assay with Human rhinovirus sp. [1] and in the assay with Human rhinovirus sp. [3] were 64.4% and 97.8%, respectively. Also, the half-maximal inhibitory concentration (IC50) in assay [2] came out at 10.6 µM.
The matching figures for `CC1(C)O[C@H](C(=O)Nc2nc3ccccc3s2)[C@@H](C(=O)N2CCN(c3ccccn3)CC2)O1`: 10.8%, 82.5% and more than 10 µM.
Regarding `COc1cccc(NCCNC(=O)[C@H]2OC(C)(C)O[C@@H]2C(=O)Nc2nc3ccccc3s2)c1`, the figures for the inhibition in the assay with Human rhinovirus sp. [1] and in the assay on Human rhinovirus sp. [3] were 43.6% and 85.2%, respectively. Besides, the concentration for half-maximal inhibition (IC50) in assay [2] is more than 10 µM.
The matching figures for `CC1(C)O[C@H](C(=O)Nc2nc3ccccc3s2)[C@@H](C(=O)N2CCN(c3ccccc3)CC2)O1`: 17.5%, 67.8% and more than 10 µM.
The matching figures for `Cc1cccc(CN2CCN(C(=O)[C@H]3OC(C)(C)O[C@@H]3C(=O)Nc3nc4ccccc4s3)CC2)c1`: 34.3%, 85.3% and more than 10 µM.
As to `COc1cccc(NCCNC(=O)[C@@H]2OC(C)(C)O[C@H]2C(=O)Nc2ccc3ccccc3c2)c1`, the inhibition in the assay with Human rhinovirus sp. [1] was found to be 44%; in the assay with Human rhinovirus sp. [3], 80.6%. Further, the IC50 in assay [2] is more than 10 µM.

Broadly, the inhibition is the change of the read-out against control, counted positive when it falls. Usually IC50 stands for the concentration needed to halve the response being measured.
